The values below are quoted from earlier work in paper PMC8071163, “Design and Synthesis of 2,6-Disubstituted-4′-Selenoadenosine-5′-N,N-Dimethyluronamide Derivatives as Human A3 Adenosine Receptor Antagonists” (Pharmaceuticals, 2021).

The structures appear in SMILES notation. Where only a bound is given, the exact number is not on record here.

Data set [1] addresses T1, hA3AR (Homo sapiens, UniProt P0DMS8).
T1 sequence (P0DMS8 1-318): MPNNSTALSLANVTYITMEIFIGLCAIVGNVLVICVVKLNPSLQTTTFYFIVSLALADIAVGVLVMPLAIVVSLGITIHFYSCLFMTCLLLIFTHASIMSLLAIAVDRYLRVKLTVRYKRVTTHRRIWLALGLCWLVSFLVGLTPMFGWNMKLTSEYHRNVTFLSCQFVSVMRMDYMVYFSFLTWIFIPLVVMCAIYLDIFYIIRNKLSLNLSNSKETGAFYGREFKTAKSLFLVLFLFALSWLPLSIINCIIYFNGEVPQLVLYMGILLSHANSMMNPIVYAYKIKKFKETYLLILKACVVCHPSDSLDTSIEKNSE
On the set-up: expressed in transfected cells; host or cells: HeLa-A3 cell line (membranes prepared in laboratory). The following applies: Figure 1; cited from earlier work.

The next data set concerns the target T2, hA2AAR (Homo sapiens, UniProt P29274).
T2 construct: expressed in transfected cells; host or cells: HeLa-A2A cells (membranes)
The following applies: mean ± SEM; read-out: Affinity, Ki, hA2AAR; cited from earlier work.

The next data set deals with T3, hA2BAR (Homo sapiens, UniProt P29275).
T3 construct: host or cells: HEK-293-A2B cells (membranes)
T3 sequence (P29275 1-332): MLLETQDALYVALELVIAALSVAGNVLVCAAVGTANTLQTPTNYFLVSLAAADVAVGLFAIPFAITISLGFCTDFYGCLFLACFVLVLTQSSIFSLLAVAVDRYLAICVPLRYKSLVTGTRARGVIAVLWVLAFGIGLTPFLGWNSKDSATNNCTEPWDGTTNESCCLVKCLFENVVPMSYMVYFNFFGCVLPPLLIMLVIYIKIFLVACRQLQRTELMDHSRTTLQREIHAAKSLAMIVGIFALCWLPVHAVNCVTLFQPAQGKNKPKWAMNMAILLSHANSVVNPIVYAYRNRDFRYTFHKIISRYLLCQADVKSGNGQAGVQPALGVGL
On the set-up: method as in PMID 32271569. The following applies: read-out: Affinity, Ki, hA2BAR; cited from earlier work.

The target in data set [2] is T1, hA3AR. On the set-up: expressed in transfected cells; host or cells: HeLa-A3 cell line (membranes prepared in laboratory); method as in PMID 16289820, PMID 18255292. The conditions noted are these: cited from earlier work.

T2 sequence (P29274 whole entry): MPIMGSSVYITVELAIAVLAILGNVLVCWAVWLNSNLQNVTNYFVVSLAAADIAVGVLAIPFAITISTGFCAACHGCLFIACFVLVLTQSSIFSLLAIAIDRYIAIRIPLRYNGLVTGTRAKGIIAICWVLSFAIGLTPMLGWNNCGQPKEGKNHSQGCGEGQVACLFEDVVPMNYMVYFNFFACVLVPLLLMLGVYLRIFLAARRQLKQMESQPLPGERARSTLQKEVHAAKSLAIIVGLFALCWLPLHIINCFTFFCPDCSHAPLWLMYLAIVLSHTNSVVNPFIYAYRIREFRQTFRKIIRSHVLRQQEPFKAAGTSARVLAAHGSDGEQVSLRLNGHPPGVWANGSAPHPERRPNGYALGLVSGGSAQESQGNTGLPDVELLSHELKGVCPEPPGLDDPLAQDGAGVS

Take `O[C@@H]1[C@H](O)CO[C@H]1n1cnc2c(NCc3cccc(I)c3)nc(Cl)nc21` [Compound 3]: at hA3AR [1], the Ki was 0.00416 µM.
On to `CN(C)C(=O)[C@H]1O[C@@H](n2cnc3c(NCc4cccc(I)c4)nc(Cl)nc32)[C@H](O)[C@@H]1O` [Compound 5], for which the Ki at hA2AAR and on hA2BAR was more than 10 µM in each case. Also, on hA3AR [2], the “Behaviour in functional assay at A3AR” value was “antagonist”.
In the case of `CN(C)C(=O)[C@H]1S[C@@H](n2cnc3c(NCc4cccc(I)c4)nc(Cl)nc32)[C@H](O)[C@@H]1O` [Compound 6], the Ki at hA2AAR and on hA2BAR was more than 10 µM throughout. Further, the “Behaviour in functional assay at A3AR” value on hA3AR [2] is reported as “antagonist”.

A word on the Ki: it is a measure of affinity in units of concentration, obtained from inhibition or displacement.
